The structures appear in SMILES notation.

In data set [1] the test system is insects. Description: Insecticidal activity (general statement). The conditions noted are these: statement in words.
Data set [2] relates to Mexican bean beetle (MBB) larvae. Description: Spray test, Mexican bean beetle (MBB) larvae on bean leaves. The data set is classed as in vivo. Conditions: approx. 48 h after spraying. The procedure: (§1) Three 5 oz paper cups containing Henderson dwarf lima bean plants and one 5 oz paper cup containing Orange Gem nasturtiums, all growing in vermiculite, are placed on a turntable and sprayed to thorough wetness with 25 ml of a solution of the candidate chemical at the appropriate concentration. Nasturtiums were already infested with 50-100 bean aphids (BA). A bean plant in one paper cup was already infested with 50-100 two-spotted mites (TSM). Leaves from the two remaining bean plants are removed following spraying and placed in disposable petri dishes with 5 southern armyworm (SA) larvae in one petri dish, and 5 Mexican bean beetle (MBB) larvae in the other petri dish. The rating is done approximately 48 hours after spraying as follows:
(§2) So as to obtain more meaningful results, all tests are performed at the same time of day, whenever possible, usually in the forenoon. Temperature,illumination and humidity are the same in all tests. Atmospheric pressure is not controlled.
(§3) Results obtained with the novel insecticides of this invention at various concentrations of active chemical are tabulated below. The ratings given are for averages of three or more replicates. The oral lethal dose for 50 percent kill of laboratory rats is also recorded in the table. In conducting the toxicity tests on rats, 0.01 g of active chemical per ml in corn oil is employed as an additive to the diet of the animals.

For data set [3], the system named is southern armyworm (SA) larvae. Description: Spray test, southern armyworm (SA) larvae on bean leaves. Conditions: approx. 48 h after spraying. The data set is classed as in vivo. The method, then:
as §1, §2, §3

For data set [4], the system named is bean aphids (BA). Description: Spray test, bean aphids (BA) on nasturtiums. The data set is classed as in vivo. Conditions: approx. 48 h after spraying. The method, then: as §1, §2, §3
Data set [5] concerns two-spotted mites (TSM). The data set can be described thus: Spray test, two-spotted mites (TSM) on bean plants. The conditions noted are these: 500 ppm; approx. 48 h after spraying. The data set is classed as in vivo. The method, then:
as §1, §2, §3

Data set [6] has as its system Southern Corn Rootworm (SCR). Description: Southern Corn Rootworm (SCR) soil treatment test, root feeding damage on corn. The conditions noted are these: nine days after treatment. Set-up: scale not given here. The data set is classed as in vivo. The method, then: Three 5 oz paper cups planted each with one kernel of DeKalb XL-361 corn are treated two days after planting with 10 ml of a 125 ppm solution of the candidate compound. Compounds with high efficacy are treated at lower concentrations. The experiment is a 4×5 factorial in a randomized complete block design with three replications. The tests are evaluated nine days after treatment. The roots are inspected under a dissecting microscope and rated as follows:
as §2, §3

Data set [7] in a line: Oral toxicity test on laboratory rats. Conditions: rat, in vivo, in corn oil as additive to the diet, read-out: LD50 (oral lethal dose for 50 percent kill of laboratory rats). The procedure: as §3

With `C#CCSc1nc(C2CCCCC2)nn1C(=O)N(C)C` [1-N,N-dimethylcarbamyl-3-cyclohexyl-5-propargylthio-1,2,4-triazole], the insecticidal activity entry in data set [1] is “virtually useless as insecticides”.
As to `C#CCSc1nc(C(C)(C)C)nn1C(=O)N(C)C` [R=2-propynyl, R'=tert.butyl], the “MBB rating (larvae dead)” value in data set [2] (4 ppm) is 0 (no larvae dead); in data set [2] (8 ppm), 0 (no larvae dead); in data set [2] (15 ppm), 4 (76-99% larvae dead); in data set [2] (31 ppm), 5 (100% larvae dead); in data set [2] (62 ppm) it was 5 (100% larvae dead); in data set [2] (125 ppm), 5 (100% larvae dead). Also, the “MBB rating (larvae dead)” value in data set [2] (250 ppm) and in data set [2] (500 ppm) was 5 (100% larvae dead) each time. In addition, the “SA rating (larvae dead)” value in data set [3] (15 ppm) was 0 (no larvae dead); in data set [3] (31 ppm), 0 (no larvae dead); in data set [3] (62 ppm), 0 (no larvae dead); in data set [3] (125 ppm) it was 2 (26-50% larvae dead); in data set [3] (250 ppm), 5 (100% larvae dead); in data set [3] (500 ppm), 5 (100% larvae dead). The “BA rating (dead)” value in data set [4] (4 ppm), in data set [4] (8 ppm), in data set [4] (15 ppm), in data set [4] (31 ppm), in data set [4] (62 ppm) and in data set [4] (125 ppm) was 5 (100% dead) in each case. The “BA rating (dead)” value in data set [4] (250 ppm) and in data set [4] (500 ppm) was 5 (100% dead) in each case. In addition, in data set [5], the “TSM rating (dead adults)” value is recorded as 1 (1-25% dead adults). Further, the entries for the “SCR Rating (root feeding damage)” value in data set [6] (6 ppm) and in data set [6] (12 ppm) were 3.5 and 4.5, respectively. In addition, in data set [7], the LD50 was over 50 mg/kg.

The values are drawn from patent US4160839A, “Carbamyltriazole insecticides” (priority 1976, dated 1979).
